Here are results for 14 compounds from patent US11578085B2, “Heterocycle-substituted bicyclic azole pesticides” (FMC CORPORATION, priority 2013, dated 2023).

SMILES strings stand for the structures. Like-named read-outs stand apart in the source and are kept apart here.

Holding throughout (type): in vivo
Experiment [1] deals with green peach aphid (Myzus persicae (Sulzer)). Nature of the experiment: Test C: control of green peach aphid on radish plant (spray, contact and/or systemic). Conditions: 144 h. On the procedure:
(§1) Test compounds were formulated using a solution containing 10% acetone, 90% water and 300 ppm X-77® Spreader Lo-Foam Formula non-ionic surfactant containing alkylarylpolyoxyethylene, free fatty acids, glycols and isopropanol (Loveland Industries, Inc. Greeley, Colo., USA). The formulated compounds were applied in 1 mL of liquid through a SUJ2 atomizer nozzle with 1/8 JJ custom body (Spraying Systems Co. Wheaton, Ill., USA) positioned 1.27 cm (0.5 inches) above the top of each test unit. Test compounds were sprayed at the rates indicated, and each test was replicated three times.
For evaluating control of green peach aphid (Myzus persicae (Sulzer)) through contact and/or systemic means, the test unit consisted of a small open container with a 12-15-day-old radish plant inside. This was pre-infested by placing on a leaf of the test plant 30-40 aphids on a piece of leaf excised from a culture plant (cut-leaf method). The aphids moved onto the test plant as the leaf piece desiccated. After pre-infestation, the soil of the test unit was covered with a layer of sand.
Test compounds were formulated and sprayed at 250 and/or 50 ppm. After spraying of the formulated test compound, each test unit was allowed to dry for 1 hour and then a black, screened cap was placed on top. The test units were held for 6 days in a growth chamber at 19-21° C. and 50-70% relative humidity. Each test unit was then visually assessed for insect mortality.

The subject of experiment [2] is cotton melon aphid (Aphis gossypii (Glover)). The experiment can be described thus: Test D: control of cotton melon aphid on cotton plant (spray, contact and/or systemic). The conditions noted are these: 144 h, assessed after 6 days; for mortality at 50 ppm: sprayed at 50 ppm; for mortality at 250 ppm: sprayed at 250 ppm. On the procedure: as §1
For evaluating control of cotton melon aphid (Aphis gossypii (Glover)) through contact and/or systemic means, the test unit consisted of a small open container with a 6-7-day-old cotton plant inside. This was pre-infested with 30-40 insects on a piece of leaf according to the cut-leaf method, and the soil of the test unit was covered with a layer of sand.
Test compounds were formulated and sprayed at 250 and/or 50 ppm. After spraying, the test units were maintained in a growth chamber for 6 days at 19° C. and 70% relative humidity. Each test unit was then visually assessed for insect mortality.

The test system of experiment [3] is sweetpotato whitefly (Bemisia tabaci (Gennadius)). Nature of the experiment: Test F: control of sweetpotato whitefly on cotton plant (spray, contact and/or systemic). Conditions: 312 h. As for the experimental part: as §1
For evaluating control of the sweetpotato whitefly (Bemisia tabaci (Gennadius)) through contact and/or systemic means, the test unit consisted of a small open container with a 12-14-day-old cotton plant inside. Prior to the spray application, both cotyledons were removed from the plant, leaving one true leaf for the assay. Adult whiteflies were allowed to lay eggs on the plant and then were removed from the test unit. Cotton plants infested with at least 15 eggs were submitted to the test for spraying.
Test compounds were formulated and sprayed at 250 and/or 50 ppm. After spraying, the test units were allowed to dry for 1 hour. The cylinders were then removed, and the units were taken to a growth chamber and held for 13 days at 28° C. and 50-70% relative humidity. Each test unit was then visually assessed for insect mortality.

In experiment [4] the test system is potato leafhopper (Empoasca fabae (Harris)). The experiment can be described thus: Test B: control of potato leafhopper on Soleil bean plant (spray, contact and/or systemic). The conditions noted are these: 144 h, sprayed at 250 ppm, assessed after 6 days. On the procedure: as §1
For evaluating control of potato leafhopper (Empoasca fabae (Harris)) through contact and/or systemic means, the test unit consisted of a small open container with a 5-6-day-old Soleil bean plant (primary leaves emerged) inside. White sand was added to the top of the soil, and one of the primary leaves was excised prior to application of the test compound.
Test compounds were formulated and sprayed at 250 and/or 50 ppm. After spraying of the formulated test compound, the test units were allowed to dry for 1 hour before they were post-infested with 5 potato leafhoppers (18-to-21-day-old adults). […] Each test unit was then visually assessed for insect mortality.

The mark [5] stands for this setting: sprayed at 50 ppm, assessed after 6 days, read-out: mortality.
Where [6] appears, read: sprayed at 250 ppm, assessed after 6 days, read-out: mortality.
[7] abbreviates: sprayed at 250 ppm, assessed after 13 days, read-out: mortality.

One may read the mortality as the share of the test organisms that died. Regarding `O=C(NC1CCCCC1)c1cccc2nn(-c3cccnc3)cc12` [Compound 16, N-cyclohexyl-2-(3-pyridinyl)-2H-indazole-4-carboxamide], the mortality at 50 ppm in experiment [1] (setting [5]) and in experiment [2] was at least 80% in each case. The mortality at 250 ppm in experiment [1] (setting [6]) and in experiment [2] was at least 80% each time.

As for `CC(F)(F)CNC(=O)c1ccc2nn(-c3cccnc3)cc2c1` [Compound 54, N-(2,2-difluoropropyl)-2-(3-pyridinyl)-2H-indazole-5-carboxamide], the mortality at 50 ppm in experiment [1] (setting [5]) and in experiment [2] was at least 80% in each case. Besides, the mortality at 250 ppm in experiment [1] (setting [6]) and in experiment [2] was at least 80% each time.

`O=C(NC1CC1)c1cccc2nn(-c3cccnc3)cc12` [Compound 14, N-cyclopropyl-2-(3-pyridinyl)-2H-indazole-4-carboxamide]: the mortality at 50 ppm in experiment [1] (setting [5]) and in experiment [2] was at least 80% each time. Also, the mortality at 250 ppm in experiment [1] (setting [6]) and in experiment [2] was at least 80% throughout.

With `O=C(NCC1CCCO1)c1ccc2nn(-c3cccnc3)cc2c1` (stereo not shown) [Compound 41, 2-(3-pyridinyl)-N-[(tetrahydro-2-furanyl)methyl]-2H-indazole-5-carboxamide], the mortality at 50 ppm in experiment [1] (setting [5]) and in experiment [2] was at least 80% in each case. In addition, the mortality at 250 ppm in experiment [1] (setting [6]) and in experiment [2] was at least 80% each time.

In the case of `O=C(NCCCl)c1ccc2nn(-c3cccnc3)cc2c1` [Compound 463], the values for the mortality at 250 ppm in experiment [3] and in experiment [1] were at least 50% and at least 80%, respectively. The same compound displayed a mortality at 50 ppm in experiment [1] of at least 80%.

Regarding `O=C(NCC1CCCO1)c1ccc2nn(-c3ccc[n+]([O-])c3)cc2c1` (stereo not shown) [Compound 462], the mortality at 50 ppm in experiment [1] (setting [5]) was at least 80%. Moreover, the mortality at 250 ppm in experiment [1] (setting [6]) and in experiment [2] was at least 80% throughout.

As to `O=C(NCC(F)(F)F)c1cccc2nn(-c3cccnc3)cc12` [Compound 19, 2-(3-pyridinyl)-N-(2,2,2-trifluoroethyl)-2H-indazole-4-carboxamide], the mortality at 50 ppm in experiment [1] (setting [5]) and in experiment [2] was at least 80% in each case. Further, the mortality at 250 ppm in experiment [1] (setting [6]) and in experiment [2] was at least 80% each time.

Take `CC(C)NC(=O)c1cccc2nn(-c3cccnc3)cc12` [Compound 8, N-(1-methylethyl)-2-(3-pyridinyl)-2H-indazole-4-carboxamide]: the mortality at 250 ppm is at least 50% in experiment [3] (setting [7]), at least 80% in experiment [1] (setting [6]) and at least 80% in experiment [2]. For the same compound, the mortality at 50 ppm in experiment [1] (setting [5]) and in experiment [2] was at least 80% each time.

Turning to `Cc1cnc(CNC(=O)c2ccc3nn(-c4cccnc4)cc3c2)cn1` [Compound 76, N-[(5-methyl-2-pyrazinyl)methyl]-2-(3-pyridinyl)-2H-indazole-5-carboxamide], the mortality at 50 ppm in experiment [1] (setting [5]) and in experiment [2] was at least 80% throughout. For the same compound, the mortality at 250 ppm in experiment [1] (setting [6]) was at least 80%.

As for `CSCCNC(=O)c1cccc2nc(-c3cccnc3)sc12` [Compound 84, N-[2-(methylthio)ethyl]-2-(3-pyridinyl)-7-benzothiazolecarboxamide], the mortality at 50 ppm in experiment [1] (setting [5]) was at least 80%. In addition, the mortality at 250 ppm in experiment [1] (setting [6]) is at least 80%.

Consider `O=C(NCC1CC1(F)F)c1ccc2nn(-c3cccnc3)cc2c1` (stereo not shown) [Compound 51, N-[(2,2-difluorocyclopropyl)methyl]-2-(3-pyridinyl)-2H-indazole-5-carboxamide], for which the mortality at 50 ppm in experiment [1] (setting [5]) and in experiment [2] was at least 80% each time. For the same compound, the mortality at 250 ppm in experiment [1] (setting [6]) and in experiment [2] was at least 80% in each case.

For `O=C(NCc1ncccn1)c1ccc2nn(-c3cccnc3)cc2c1` [Compound 55, 2-(3-pyridinyl)-N-(2-pyrimidinylmethyl)-2H-indazole-5-carboxamide], the mortality at 50 ppm in experiment [1] (setting [5]) and in experiment [2] was at least 80% throughout. Also, the mortality at 250 ppm in experiment [1] (setting [6]) and in experiment [2] was at least 80% in each case.

In the case of `O=C(NCC(F)(F)F)c1cccc2nn(-c3ccc[n+]([O-])c3)cc12` [Compound 466], the mortality at 250 ppm in experiment [4] was at least 80%.

Take `COC(=O)NNC(=O)c1ccc2nn(-c3cccnc3)cc2c1` [Compound 42, methyl 2-[[2-(3-pyridinyl)-2H-indazol-5-yl]carbonyl]hydrazinecarboxylate]: the mortality at 250 ppm in experiment [3] (setting [7]) is at least 50%; in experiment [1] (setting [6]), at least 80%. In addition, the mortality at 50 ppm in experiment [1] (setting [5]) and in experiment [2] was at least 80% throughout.
